pIC50: −log10 of the molar value. Read-outs that look alike come from different tables or passages of the source.
Tests used:
[1] = biological target: T1, OCT2 (Homo sapiens, UniProt O15244); test: Inhibition of model substrate uptake in OCT2-overexpressing HEK293 cells; conditions: for (S,S)-Ethambutol inhibition [%] / N-Ethyllidocaine inhibition [%] / inhibition at 5 min, 20 μM / ASP+ inhibition [%]: OCT2, 20 μM inhibitor; for inhibition at 5 min, 20 μM: human, OCT2-overexpressing HEK293 cells
T1 sequence (O15244 1-555): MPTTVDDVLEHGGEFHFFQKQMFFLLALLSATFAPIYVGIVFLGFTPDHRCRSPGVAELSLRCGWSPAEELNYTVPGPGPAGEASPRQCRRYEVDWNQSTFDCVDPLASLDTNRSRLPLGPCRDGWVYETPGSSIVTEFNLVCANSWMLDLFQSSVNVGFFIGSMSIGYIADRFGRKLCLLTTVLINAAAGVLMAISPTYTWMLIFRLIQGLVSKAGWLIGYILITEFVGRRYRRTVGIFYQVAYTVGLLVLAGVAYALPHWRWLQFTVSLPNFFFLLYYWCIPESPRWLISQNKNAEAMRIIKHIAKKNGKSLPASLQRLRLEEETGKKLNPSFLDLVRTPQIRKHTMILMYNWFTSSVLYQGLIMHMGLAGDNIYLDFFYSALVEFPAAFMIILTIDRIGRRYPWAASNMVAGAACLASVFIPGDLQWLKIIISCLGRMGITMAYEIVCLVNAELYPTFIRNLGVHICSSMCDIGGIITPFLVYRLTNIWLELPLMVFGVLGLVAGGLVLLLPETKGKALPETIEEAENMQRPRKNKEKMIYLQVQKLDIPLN
Method: (§1) All experiments were carried out in transporter-overexpressing HEK293 cells. OCT1-, OCT2-, NET-, DAT-, and SERT-overexpressing cells as well as the empty-vector transfected control cell line were generated as described earlier,[26]−[28] whereas the OCT3-overexpressing HEK293 cells were generous gift of from Drs. Koepsell and Gorbulev (University of Würzburg, Germany). All cells were cultivated in Dulbecco’s modified Eagle’s medium (DMEM) supplemented with 10% (v/v) FCS, penicillin (100 U/mL), and streptomycin (100 μg/mL) and kept in culture for no longer than 30 passages.
(§2) As for the transport experiments, 300,000 HEK293 cells were plated in poly-D-lysine-coated 24-well plates 2 days ahead of the experiment. On every plate, two wells of empty vector (EV)-transfected cells were used as a control to account for the passive influx of the model substrate, and two wells of transporter-overexpressing cells were used to determine the noninhibited uptake of the model substrate. Cells were initially washed once with 37 °C HBSS+ and then incubated with 2 μM model substrate (0.2 μM for MPP^+ uptake by MATs) with and without 20 μM inhibitor for 5 min. For concentration-dependent inhibition experiments, the cells were incubated with increasing inhibitor concentrations. The incubation was terminated by aspiration of the buffer before cells were washed twice with ice-cold HBSS+ and lysed in 80% acetonitrile. Cell lysates were transferred into a black 96-well plate for the fluorescence measurement of ASP^+ or used for sample preparation for LC–MS/MS analysis. […] Fluorescence quantification was performed in technical duplicates.
(§3) Transporter-mediated net uptake was calculated as the difference between uptake in transporter-overexpressing cells and that in the empty-vector-transfected control. […] Vmax is the maximum transport velocity, while Km is defined as the substance concentration that is required to reach half of vmax. The ratio of vmax over Km is termed intrinsic clearance Clint. For inhibition experiments, the transport activity was calculated by using the following equation [drawing 1]
(§4) SubstrateEV refers to the passive uptake of model substrates into the control cells and substratenoninhibited is the uptake in transporter-overexpressing cells without the presence of any inhibitor. The percent inhibition values are then calculated as described in the following [drawing 2]
(§5) For concentration inhibition experiments, the transporter activity was plotted against the log10 of inhibitor concentrations, and the data were fitted by the following equation to determine IC50 values [drawing 3]
(§6) Y refers to the transporter activity, whereas Ymax is the maximum and Ymin is the minimal transporter activity. X is the log10 of inhibitor concentrations, IC50 is the half-maximal inhibitory concentration, and hill slope is the slope factor.

[2] = biological target: T2, OCT1 (Homo sapiens, UniProt O15245); test: Inhibition of model substrate uptake in OCT1-overexpressing HEK293 cells; type: cell-based; design: expressed in transfected cells; host or cells: HEK293; conditions: for pIC50: 2 μM ASP+ or ethambutol as model substrate, read-out: IC50
T2 sequence (O15245 1-554): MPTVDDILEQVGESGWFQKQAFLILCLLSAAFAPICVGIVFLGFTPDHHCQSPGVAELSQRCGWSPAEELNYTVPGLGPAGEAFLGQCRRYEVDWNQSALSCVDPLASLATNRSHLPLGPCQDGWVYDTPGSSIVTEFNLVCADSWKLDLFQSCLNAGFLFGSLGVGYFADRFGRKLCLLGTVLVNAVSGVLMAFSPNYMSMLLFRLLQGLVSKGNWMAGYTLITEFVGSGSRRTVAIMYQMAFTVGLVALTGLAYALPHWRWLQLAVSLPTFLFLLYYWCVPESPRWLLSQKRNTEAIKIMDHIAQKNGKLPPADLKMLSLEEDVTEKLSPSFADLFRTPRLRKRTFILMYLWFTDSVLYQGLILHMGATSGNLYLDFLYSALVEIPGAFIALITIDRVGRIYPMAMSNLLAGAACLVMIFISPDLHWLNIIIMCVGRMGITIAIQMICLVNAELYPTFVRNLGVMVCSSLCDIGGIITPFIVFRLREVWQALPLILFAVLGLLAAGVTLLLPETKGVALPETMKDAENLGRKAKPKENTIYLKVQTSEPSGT
Method: Koepsell and Gorbulev (University of Würzburg, Germany).
Fluorescence quantification was performed in technical duplicates.

[3] = biological target: T3, OCT3 (Homo sapiens, UniProt O75751); test: Inhibition of model substrate uptake in OCT3-overexpressing HEK293 cells; type: cell-based
T3 construct: expressed in transfected cells; host or cells: HEK293
T3 sequence (O75751 1-556): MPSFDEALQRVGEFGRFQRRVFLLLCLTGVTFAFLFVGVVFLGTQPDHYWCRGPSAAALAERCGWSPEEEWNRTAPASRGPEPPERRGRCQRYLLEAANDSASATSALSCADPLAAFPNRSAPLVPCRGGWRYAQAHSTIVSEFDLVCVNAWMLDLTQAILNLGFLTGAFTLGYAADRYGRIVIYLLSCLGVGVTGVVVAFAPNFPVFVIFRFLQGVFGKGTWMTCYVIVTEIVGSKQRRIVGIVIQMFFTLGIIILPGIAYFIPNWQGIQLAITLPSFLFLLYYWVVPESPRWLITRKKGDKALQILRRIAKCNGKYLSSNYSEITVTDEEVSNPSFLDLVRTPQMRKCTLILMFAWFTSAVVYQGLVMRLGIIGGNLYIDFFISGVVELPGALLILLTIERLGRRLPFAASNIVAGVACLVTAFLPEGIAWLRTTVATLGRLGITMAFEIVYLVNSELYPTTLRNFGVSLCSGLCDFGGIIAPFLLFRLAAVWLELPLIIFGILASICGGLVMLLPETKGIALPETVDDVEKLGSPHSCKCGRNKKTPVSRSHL
Method: as §1, §2, §3, §4, §5, §6

[4] = pH 7.4, probe ASP+ (2 μM), ASP+ inhibition [%], 2 μM ASP+, 5 min
[5] = human, OCT1-overexpressing HEK293 cells, pH 7.4, probe (S,S)-ethambutol (2 μM), (S,S)-Ethambutol inhibition [%], OCT1, 20 μM inhibitor, 2 μM (S,S)-ethambutol, 5 min
[6] = human, OCT1-overexpressing HEK293 cells, pH 7.4, probe ASP+ (2 μM), OCT1, 20 μM inhibitor, 2 μM ASP+, 5 min, mean of three experiments, read-out: ASP+ inhibition [%]
[7] = human, OCT1-overexpressing HEK293 cells, pH 7.4, probe sumatriptan (2 μM), OCT1, 20 μM inhibitor, 2 μM sumatriptan, 5 min, read-out: Sumatriptan inhibition [%]
[8] = HEK293, 5 min, read-out: (S)-Zolmitriptan inhibition [%]
[9] = HEK293, 5 min, read-out: (S,S)-Ethambutol inhibition [%]
[10] = pH 7.4, probe N-ethyllidocaine (2 μM), N-Ethyllidocaine inhibition [%], 2 μM N-ethyllidocaine, 5 min
[11] = OCT3, 20 μM inhibitor, 2 μM (S)-zolmitriptan, 5 min
[12] = OCT3, 20 μM inhibitor, 2 μM ASP+, 5 min
[13] = OCT1, 20 μM inhibitor, 2 μM (S,S)-ethambutol, 5 min
[14] = OCT1, 20 μM inhibitor, 2 μM ASP+, 5 min, mean of three experiments
[15] = OCT1, 20 μM inhibitor, 2 μM sumatriptan, 5 min
[16] = OCT3, 20 μM inhibitor, 2 μM (S,S)-ethambutol, 5 min
[17] = pH 7.4, probe (S,S)-ethambutol (2 μM), (S,S)-Ethambutol inhibition [%], 2 μM (S,S)-ethambutol, 5 min
[18] = HEK293, 5 min, read-out: (S)-Zolmitriptan inhibition [%], OCT3, 20 μM inhibitor, 2 μM (S)-zolmitriptan, 5 min
[19] = HEK293, 5 min, read-out: (S,S)-Ethambutol inhibition [%], OCT3, 20 μM inhibitor, 2 μM (S,S)-ethambutol, 5 min
[20] = HEK293, OCT3, 20 μM inhibitor, 2 μM ASP+, 5 min, read-out: ASP+ inhibition [%]
[21] = IC50, OCT2, Table S5, 2 μM ASP+ as model substrate, 5 min

Structure (SMILES)	(S,S)-Ethambutol inhibition [%] ([1]; 2 μM (S,S)-ethambutol, 5 min)	N-Ethyllidocaine inhibition [%] ([1]; 2 μM N-ethyllidocaine, 5 min)	inhibition at 5 min, 20 μM [1, 4] [%]	inhibition at 5 min, 20 μM [2, 5] [%]	inhibition at 5 min, 20 μM [2, 6] [%]	inhibition at 5 min, 20 μM [2, 7] [%]	inhibition at 20 µM [3, 8] [%]	inhibition at 20 µM [3, 9] [%]	inhibition at 5 min, 20 μM [1, 10] [%]	(S)-Zolmitriptan inhibition [%] [3, 11] [%]	ASP+ inhibition [%] [3, 12] [%]	ASP+ inhibition [%] ([1]; 2 μM ASP+, 5 min)	ASP+ inhibition [%] [2, 14] [%]	Sumatriptan inhibition [%] [2, 15] [%]	inhibition at 5 min, 20 μM [1, 17] [%]	inhibition at 20 µM [3, 20] [%]	further results
CNCC[C@@H](Oc1ccc(C(F)(F)F)cc1)c1ccccc1 [(R)-Fluoxetine]	28.2	48.9	65.6	77.5	45.6	83.4	17	9.6	–	–	–	–	–	–	–	–	ASP+ inhibition [%] [3]: -6.0%
CCC(CO)NCCNC(CC)CO [(R,R)-Ethambutol]	–	–	34.4	–	7.7	17.9	–	–	7.7	-3.7	9.1	–	–	–	–	–	–
CN(C)CCO[C@@](C)(c1ccccc1)c1ccccn1 [(S)-Doxylamine]	26.3	-17.1	–	–	–	–	–	–	–	33.8	7.4	64.3	51.7	88.2	–	–	pIC50 ([2]; OCT1, Table S5, 5 min): 4.49; (S,S)-Ethambutol inhibition [%] [2, 13]: 86.5%; selectivity ratio at 5 min ([2]; human, OCT1-overexpressing HEK293 cells, pH 7.4, OCT1, Table S5, ratio of the IC50 values of both isomers, label = isomer named in the cell (as a rule the one with the higher IC50), read-out: Stereoselectivity (x-fold for the named isomer)): 1.4; (S,S)-Ethambutol inhibition [%] [3, 16]: 35.8%
CNC[C@@H](O)c1cccc(O)c1 [(S)-Phenylephrine]	–	–	5.4	6.2	5.2	-5.1	–	–	-2.7	–	–	–	–	–	5.5	2.7	inhibition at 20 µM [3, 18]: -3.9%; inhibition at 20 µM [3, 19]: 5.6%
CNCC[C@H](Oc1cccc2ccccc12)c1cccs1 [(S)-Duloxetine]	–	–	70.2	86.9	43.3	88.5	19.6	25.2	46.1	–	–	–	–	–	19.4	–	pIC50 ([1]; IC50): 4.78; inhibition at 20 µM ([3]; HEK293, read-out: ASP+ inhibition [%]): 2.4%
CCCN[C@@H]1CCc2nc(N)sc2C1 [(R)-Pramipexole]	–	–	43.3	51.6	19.8	55.8	–	–	37.1	–	–	–	–	–	10.5	5.3	pIC50 [1, 21]: 4.69; pIC50 ([2]; OCT1, Table S5, 5 min): 4.69; inhibition at 20 µM [3, 18]: 13%; inhibition at 20 µM [3, 19]: 23.1%
CCC(CO)NCCNC(CC)CO [(R,S)-Ethambutol]	–	6.8	–	–	–	–	–	–	–	-8.0	2.6	26.0	4.0	10.2	–	–	–
NC[C@@H](O)c1ccc(O)c(O)c1 [(S)-Norepinephrine]	5.1	7.1	–	–	–	–	–	–	–	-6.6	-3.5	20.5	-3.3	6.6	–	–	(S,S)-Ethambutol inhibition [%] [2, 13]: 6.1%; (S,S)-Ethambutol inhibition [%] [3, 16]: 12.5%
C#CCN(C)[C@H](C)Cc1ccccc1 [(R)-Deprenyl]	–	52.3	–	–	–	–	18	24.2	–	–	–	101.0	21.6	–	–	12.6	pIC50 [1, 21]: 5.62; Sumatriptan inhibition [%] ([2]; human, pH 7.4): 62.3%

Source: article PMC10698726 (Molecular Pharmaceutics, 2023)
